Holding throughout (type): in vivo, mouse
One assay concerns MMP-9. As to the kind of experiment: MMP-9 expression in aorta by RT-PCR and Western blot. Particulars: aorta of apo-E knockout mice, high-cholesterol diet, 1 mg/kg/d of each drug, 12 weeks; vs high-cholesterol diet alone. The protocol:
(§1) Five pairs of C57BL/6J mice and three pairs of homozygous apo-E knockout mice (on C57BL/6J background) were obtained from Jackson Laboratories (Bar Harbor, Me.). They were bred by brother-sister mating and housed in a room lit from 6:00 AM to 6:00 PM and kept at 21° C. The C57BL/6J mice (n=10) were continued on regular diet for the entire study period. The apo-E knockout mice were divided into four groups. Group 1 (n=10) animals were given high-cholesterol diet (1% cholesterol) alone for 12 weeks since the age of 6 weeks; Group 2 (n=10) animals were given high-cholesterol diet with candesartan (1 mg/kg/d) for 12 weeks since the age of 6 weeks; Group 3 (n=10) animals were given high-cholesterol diet with the rosuvastatin (1 mg/kg/d) for 12 weeks since the age of 6 weeks; Group 4 (n=10) animals were given high-cholesterol diet with candesartan (1 mg/kg/d) and rosuvastatin (1 mg/kg/d) for 12 weeks since the age of 6 weeks.
(§2) At the end of 12-week-treatment, 5 mice from each group were euthanized and the aortas (from aorta arch to iliac bifurcation) were separated from surrounding tissues and stored on dry ice. Each aorta was cut into four segments, two of which were used to extract total RNA with the single-step acid-guanidinium thiocyanate-phenol-chloroform method as described earlier (27). […]

The test system of assay [1] is apo-E knockout mice fed high-cholesterol diet. Description: Quantitative analysis of atherosclerotic plaques (Sudan IV stained aortas). The conditions noted are these: 1 mg/kg/d of each drug, 12 weeks, vs high-cholesterol diet alone. The protocol: Five pairs of C57BL/6J mice and three pairs of homozygous apo-E knockout mice (on C57BL/6J background) were obtained from Jackson Laboratories (Bar Harbor, Me.). They were bred by brother-sister mating and housed in a room lit from 6:00 AM to 6:00 PM and kept at 21° C. The C57BL/6J mice (n=10) were continued on regular diet for the entire study period. The apo-E knockout mice were divided into four groups. Group 1 (n=10) animals were given high-cholesterol diet (1% cholesterol) alone for 12 weeks since the age of 6 weeks; Group 2 (n=10) animals were given high-cholesterol diet with candesartan (1 mg/kg/d) for 12 weeks since the age of 6 weeks; Group 3 (n=10) animals were given high-cholesterol diet with the rosuvastatin (1 mg/kg/d) for 12 weeks since the age of 6 weeks; Group 4 (n=10) animals were given high-cholesterol diet with candesartan (1 mg/kg/d) and rosuvastatin (1 mg/kg/d) for 12 weeks since the age of 6 weeks. At the end of 12-week-treatment, the mice were sacrificed and subject to studies described below. All experimental procedures were performed in accordance with protocols approved by the institutional Animal Care and Usage Committee of University of Arkansas for Medical Sciences. Quantitative Analysis of Atherosclerotic Plaques At the end of 12-week-treatment, 5 mice from each group were euthanized and the aortas were separated from surrounding tissues. After removal of the adventitial fat tissue, the aortas were opened longitudinally from the aorta arch to the iliac bifurcation, and fixed in 10% formalin for 24 hours. Then the aortas were rinsed in 70% alcohol briefly, stained with Sudan IV solution for 15 minutes, differentiated in 80% alcohol for 20 minutes and washed in running water for 1 hour (Russell L. Techniques for studying atherosclerotic lesion, Lab Invest. 1958; 7:42-47). […] The images were analyzed by soft ware (Image Pro Plus, Media Cybernetics). […] Statistical significance was determined in multiple comparisons among independent groups of data in which ANOVA and the F test indicated the presence of significant differences. […]

For another assay, the system named is TIMP-1. As to the kind of experiment: TIMP-1 protein expression in aorta by Western blot. The conditions noted are these: aorta of apo-E knockout mice, high-cholesterol diet, 1 mg/kg/d of each drug, 12 weeks; vs high-cholesterol diet alone. The procedure:
(§3) Five pairs of C57BL/6J mice and three pairs of homozygous apo-E knockout mice (on C57BL/6J background) were obtained from Jackson Laboratories (Bar Harbor, Me.). They were bred by brother-sister mating and housed in a room lit from 6:00 AM to 6:00 PM and kept at 21° C. The C57BL/6J mice (n=10) were continued on regular diet for the entire study period. The apo-E knockout mice were divided into four groups. […]
(§4) Each mouse aorta was cut into four segments. […] Membranes were washed and then incubated with 1:5000 dilution specific secondary antibody (Amersham Life Science) for 2 hours at room temperature, and the membranes were washed and detected with the ECL system (Amersham Life Science). The relative intensities of protein bands were analyzed by Scan-gel-it software (Li D Y, Zhang Y C, Sawamura T, Mehta J L. Circ Res. 1999; 84:1043-1049).
(§5) All data represent mean of duplicate samples. […] Statistical significance was determined in multiple comparisons among independent groups of data in which ANOVA and the F test indicated the presence of significant differences. […]

The subject of another assay is LOX-1. Description: LOX-1 expression in aorta by RT-PCR and Western blot. Particulars: aorta of apo-E knockout mice, high-cholesterol diet, 1 mg/kg/d of each drug, 12 weeks; vs high-cholesterol diet alone. The procedure:
as §1, §2
In general terms: A western blot detects proteins with antibodies after separation by electrophoresis.

Another assay concerns MMP-1. Description: MMP-1 expression in aorta by RT-PCR and Western blot. Particulars: aorta of apo-E knockout mice, high-cholesterol diet, 1 mg/kg/d of each drug, 12 weeks; vs high-cholesterol diet alone. The protocol:
as §1, §2

The test system of a further assay is CD40. As to the kind of experiment: CD40 expression in aorta by RT-PCR and Western blot. Particulars: aorta of apo-E knockout mice, high-cholesterol diet, 1 mg/kg/d of each drug, 12 weeks; vs high-cholesterol diet alone. The protocol: as §1, §2
The test system of another assay is MMP-2. Description: MMP-2 expression in aorta by RT-PCR and Western blot. The conditions noted are these: aorta of apo-E knockout mice, high-cholesterol diet, 1 mg/kg/d of each drug, 12 weeks; vs high-cholesterol diet alone. The protocol: as §1, §2
A further assay concerns TIMP-2. As to the kind of experiment: TIMP-2 protein expression in aorta by Western blot. Particulars: aorta of apo-E knockout mice, high-cholesterol diet, 1 mg/kg/d of each drug, 12 weeks; vs high-cholesterol diet alone. The procedure:
as §3, §4, §5

For `CC(C)c1nc(N(C)S(C)(=O)=O)nc(-c2ccc(F)cc2)c1/C=C/[C@@H](O)C[C@@H](O)CC(=O)O` [rosuvastatin], the “MMP-9 expression (mRNA and protein)” value with MMP-9 was “decreased MMP-1, -2 and -9 expression (mRNA and protein), albeit modestly”. For the same molecule, in assay [1], the decrease of atherosclerosis is ~25% and the “extent of atherosclerosis (in words)” value is listed as “decreased the extent of atherosclerosis”. For the same molecule, the TIMP-1 protein expression entry in the assay on TIMP-1 is “reduced TIMP-1 and TIMP-2 expression by a small degree”. The “LOX-1 expression (mRNA and protein)” value with LOX-1 is “decreased the LOX-1 expression (mRNA and protein), albeit modestly”. In addition, in the assay with MMP-1, the “MMP-1 expression (mRNA and protein)” value is “decreased MMP-1, -2 and -9 expression (mRNA and protein), albeit modestly”. Besides, the “CD40 expression (mRNA and protein)” value in the assay with CD40 was “slightly decreased CD40 expression”. Also, the “MMP-2 expression (mRNA and protein)” value with MMP-2 is “decreased MMP-1, -2 and -9 expression (mRNA and protein), albeit modestly”. For the same molecule, the TIMP-2 protein expression result in the assay on TIMP-2 is “reduced TIMP-1 and TIMP-2 expression by a small degree”.
Regarding `CCOc1nc2cccc(C(=O)O)c2n1Cc1ccc(-c2ccccc2-c2nnn[nH]2)cc1` [candesartan], in assay [1], the decrease of atherosclerosis entry is on record as “about 35%”.

The values are drawn from US7932263B2, “Therapeutic treatment” (AstraZeneca AB, priority 2003, dated 2011).
